In ChEMBL document CHEMBL3600349 (Bioorg Med Chem Lett, 2015):

Tests used:
[1] = Oral bioavailability in cynomolgus monkey; type: ADME, organism-based, Macaca fascicularis; conditions: in vivo
[2] = tested on: Rattus norvegicus; experiment: Antiobesity activity in diet-induced obese Wistar rat model assessed as reduction of body weight at 10 mg/kg, po bid after 4 weeks; type: functional; set-up: scale not given: the % may be the effect or the level left
[3] = tested on: Cynomolgus monkey; experiment: Clearance in cynomolgus monkey relative to hepatic blood flow; type: ADME, organism-based, Macaca fascicularis, Liver; conditions: in vivo
[4] = biological target: T1, Melanin-concentrating hormone receptor 1 (Homo sapiens, UniProt Q99705); experiment: Displacement of [125I]-MCH from human MCH-R1 expressed in CHO/Galpha16 cells after 60 mins by scintillation counting; type: cell-based
T1 sequence (Q99705 whole entry): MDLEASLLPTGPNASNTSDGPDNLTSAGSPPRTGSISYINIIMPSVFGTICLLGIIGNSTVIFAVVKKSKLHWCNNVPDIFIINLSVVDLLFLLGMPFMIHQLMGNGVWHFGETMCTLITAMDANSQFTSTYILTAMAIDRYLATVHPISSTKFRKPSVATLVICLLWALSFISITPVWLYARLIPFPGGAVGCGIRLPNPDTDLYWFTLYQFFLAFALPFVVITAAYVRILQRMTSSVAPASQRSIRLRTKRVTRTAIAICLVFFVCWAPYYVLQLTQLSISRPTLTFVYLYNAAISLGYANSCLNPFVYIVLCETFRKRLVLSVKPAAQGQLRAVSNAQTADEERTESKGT

[5] = Mean residence time in iv dosed rat; type: ADME, organism-based; conditions: in vivo
[6] = biological target: T1, Melanin-concentrating hormone receptor 1; experiment: Binding affinity to human MCH-R1 expressed in CHO/Galpha16 cells; type: cell-based
[7] = Oral bioavailability in rat; type: ADME, organism-based; conditions: in vivo
[8] = tested on: Cynomolgus monkey; experiment: Cardiotoxicity in conscious cynomolgus monkey assessed as systolic and diastolic blood pressure at 3 to 30 mg/kg, po; type: toxicity, organism-based, Macaca fascicularis; conditions: in vivo
[9] = tested on: U-937; experiment: Cytotoxicity against human U937 cells; type: cell-based
[10] = biological target: Melanin-concentrating hormone receptor 1 (Rattus norvegicus, UniProt P97639); experiment: Binding affinity to rat MCH-R1
Melanin-concentrating hormone receptor 1 (Rattus norvegicus, UniProt P97639), sequence (P97639 whole entry): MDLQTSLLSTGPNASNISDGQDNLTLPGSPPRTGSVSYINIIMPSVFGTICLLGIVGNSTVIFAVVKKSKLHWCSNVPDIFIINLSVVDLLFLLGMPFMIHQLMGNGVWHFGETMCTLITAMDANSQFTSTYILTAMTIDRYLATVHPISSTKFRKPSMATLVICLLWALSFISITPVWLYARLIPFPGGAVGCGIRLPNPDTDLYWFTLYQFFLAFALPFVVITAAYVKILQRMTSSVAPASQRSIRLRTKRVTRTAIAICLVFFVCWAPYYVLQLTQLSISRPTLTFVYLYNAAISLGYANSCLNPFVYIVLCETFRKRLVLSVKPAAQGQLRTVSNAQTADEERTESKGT

[11] = Total mean residence time in iv dosed dog; type: ADME, organism-based, Canis lupus familiaris; conditions: in vivo
[12] = tested on: Rattus norvegicus; experiment: Antiobesity activity in diet-induced obese Wistar rat model assessed as reduction of body weight at 3 mg/kg, po bid after 4 weeks; type: functional; set-up: scale not given: the % may be the effect or the level left
[13] = tested on: U-937; experiment: Toxicity in human U937 cells assessed as phospholipidosis at 100 uM by nile red uptake assay; type: cell-based; conditions: u-937, 100 µM
[14] = Mean residence time in iv dosed cynomolgus monkey; type: ADME, organism-based, Macaca fascicularis; conditions: in vivo
[15] = Total mean residence time in iv dosed cynomolgus monkey; type: ADME, organism-based, Macaca fascicularis; conditions: in vivo
[16] = tested on: U-937; experiment: Toxicity in human U937 cells assessed as first effect concentration for phospholipidosis by nile red uptake assay; type: cell-based
[17] = Distribution coefficient, log D of the compound; type: physicochemical; conditions: octanol/water
[18] = biological target: T2, Nuclear receptor subfamily 1 group I member 2 (Homo sapiens, UniProt O75469); experiment: Activation of PXR (unknown origin) at 10 uM relative to rifampicin; type: ADME
T2 sequence (O75469 whole entry): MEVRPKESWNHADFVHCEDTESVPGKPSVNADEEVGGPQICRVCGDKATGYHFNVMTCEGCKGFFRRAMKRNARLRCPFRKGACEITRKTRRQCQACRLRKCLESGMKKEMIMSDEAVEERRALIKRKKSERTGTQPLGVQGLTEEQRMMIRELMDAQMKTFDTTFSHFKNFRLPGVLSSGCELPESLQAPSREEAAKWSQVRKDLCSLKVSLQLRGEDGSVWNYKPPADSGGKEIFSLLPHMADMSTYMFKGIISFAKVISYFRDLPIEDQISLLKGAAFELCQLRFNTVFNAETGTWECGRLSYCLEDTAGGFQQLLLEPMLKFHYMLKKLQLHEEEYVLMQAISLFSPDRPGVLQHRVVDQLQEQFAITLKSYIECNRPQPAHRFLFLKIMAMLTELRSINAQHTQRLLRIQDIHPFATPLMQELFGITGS

[19] = Lipophilicity, log P of the compound by HPLC analysis; type: physicochemical
[20] = organism: Canis familiaris; experiment: Clearance in dog relative to hepatic blood flow; type: ADME, organism-based, Canis lupus familiaris, Liver; conditions: in vivo
[21] = biological target: Voltage-gated inwardly rectifying potassium channel KCNH2 (Homo sapiens, UniProt Q12809); experiment: Inhibition of human ERG by patch clamp assay
Voltage-gated inwardly rectifying potassium channel KCNH2, sequence (Q12809 whole entry): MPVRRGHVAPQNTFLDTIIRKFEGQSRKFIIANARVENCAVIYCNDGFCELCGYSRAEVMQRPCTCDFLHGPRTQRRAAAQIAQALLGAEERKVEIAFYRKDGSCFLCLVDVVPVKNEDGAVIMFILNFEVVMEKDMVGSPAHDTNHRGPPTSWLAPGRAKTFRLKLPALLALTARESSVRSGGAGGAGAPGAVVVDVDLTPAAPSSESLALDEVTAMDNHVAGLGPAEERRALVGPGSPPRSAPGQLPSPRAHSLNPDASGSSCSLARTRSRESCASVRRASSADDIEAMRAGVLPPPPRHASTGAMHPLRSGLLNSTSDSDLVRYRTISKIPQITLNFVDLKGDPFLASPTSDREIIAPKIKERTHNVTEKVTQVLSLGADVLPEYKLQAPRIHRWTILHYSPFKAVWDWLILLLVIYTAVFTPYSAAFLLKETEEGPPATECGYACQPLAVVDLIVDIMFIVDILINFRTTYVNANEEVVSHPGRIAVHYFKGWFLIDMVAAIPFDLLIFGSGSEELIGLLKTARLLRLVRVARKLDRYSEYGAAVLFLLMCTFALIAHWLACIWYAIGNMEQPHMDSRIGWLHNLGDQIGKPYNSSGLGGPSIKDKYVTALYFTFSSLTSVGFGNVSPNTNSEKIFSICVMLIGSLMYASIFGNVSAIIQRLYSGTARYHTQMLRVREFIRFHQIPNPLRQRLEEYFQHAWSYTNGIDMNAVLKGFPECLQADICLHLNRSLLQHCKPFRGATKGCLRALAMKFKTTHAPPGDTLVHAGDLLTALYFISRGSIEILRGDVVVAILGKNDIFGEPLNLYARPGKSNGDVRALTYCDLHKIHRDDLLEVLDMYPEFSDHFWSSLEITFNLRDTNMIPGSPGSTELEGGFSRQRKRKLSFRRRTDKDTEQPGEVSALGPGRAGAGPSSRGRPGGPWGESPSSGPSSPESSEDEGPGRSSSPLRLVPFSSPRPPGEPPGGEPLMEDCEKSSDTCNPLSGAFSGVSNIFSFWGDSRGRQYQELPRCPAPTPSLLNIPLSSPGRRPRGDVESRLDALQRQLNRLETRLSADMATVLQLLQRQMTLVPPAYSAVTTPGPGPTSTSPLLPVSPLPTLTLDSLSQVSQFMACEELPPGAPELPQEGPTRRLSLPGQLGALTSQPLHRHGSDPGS

[22] = Volume of distribution at steady state in cynomolgus monkey; type: ADME, organism-based, Macaca fascicularis; conditions: in vivo, read-out: Vdss
[23] = Apparent permeability from apical to basolateral side in human Caco2 cells at 10 uM; type: ADME, cell-based; conditions: Caco-2
[24] = tested on: Cynomolgus monkey; experiment: Cardiotoxicity in conscious cynomolgus monkey assessed as myocardial contraction at 3 to 30 mg/kg, po; type: toxicity, organism-based, Macaca fascicularis, Myocardium; conditions: in vivo
[25] = Plasma protein binding in cynomolgus monkey; type: ADME, cell-free, Macaca fascicularis; conditions: read-out: PPB (converted)
[26] = Total mean residence time in iv dosed rat; type: ADME, organism-based; conditions: in vivo
[27] = Metabolic stability in rat hepatocytes relative to hepatic blood flow; type: ADME, cell-based, Hepatocyte; conditions: read-out: Stability
[28] = Volume of distribution at steady state in dog; type: ADME, organism-based, Canis lupus familiaris; conditions: in vivo, read-out: Vdss
[29] = Volume of distribution at steady state in rat; type: ADME, organism-based; conditions: in vivo, read-out: Vdss
[30] = Plasma protein binding in dog; type: ADME, cell-free, Canis lupus familiaris; conditions: read-out: PPB (converted)
[31] = biological target: Cytochrome P450 2D6 (Homo sapiens, UniProt P10635); experiment: Inhibition of CYP2D6 (unknown origin); type: ADME
Cytochrome P450 2D6, sequence (P10635 whole entry): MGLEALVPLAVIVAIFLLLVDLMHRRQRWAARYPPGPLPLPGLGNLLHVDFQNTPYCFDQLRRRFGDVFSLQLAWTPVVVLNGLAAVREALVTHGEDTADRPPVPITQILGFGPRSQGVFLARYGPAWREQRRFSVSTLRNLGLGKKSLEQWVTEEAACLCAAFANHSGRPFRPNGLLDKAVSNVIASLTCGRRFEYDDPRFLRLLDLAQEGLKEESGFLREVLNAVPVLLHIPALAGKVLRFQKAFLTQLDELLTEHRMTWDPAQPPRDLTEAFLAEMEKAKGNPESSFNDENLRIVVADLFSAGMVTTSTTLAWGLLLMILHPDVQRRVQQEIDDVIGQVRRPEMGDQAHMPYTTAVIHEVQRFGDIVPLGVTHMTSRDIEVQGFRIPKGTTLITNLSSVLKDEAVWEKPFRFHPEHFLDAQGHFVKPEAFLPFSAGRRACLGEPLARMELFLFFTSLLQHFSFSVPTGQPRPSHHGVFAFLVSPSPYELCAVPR

[32] = Binding affinity to dog MCH-R1; set-up: species or system Canis lupus familiaris
[33] = Half life in rat liver microsomes; type: ADME
[34] = Efflux ratio in human Caco2 cells at 10 uM; type: ADME, cell-based; conditions: Caco-2
[35] = tested on: Cynomolgus monkey; experiment: Cardiotoxicity in conscious cynomolgus monkey assessed as decrease in heart rate at 30 mg/kg, po; type: toxicity, organism-based, Macaca fascicularis; conditions: in vivo
[36] = biological target: T3, Cytochrome P450 2C8 (Homo sapiens, UniProt P10632); experiment: Inhibition of CYP2C8 (unknown origin); type: ADME
T3 sequence (P10632 whole entry): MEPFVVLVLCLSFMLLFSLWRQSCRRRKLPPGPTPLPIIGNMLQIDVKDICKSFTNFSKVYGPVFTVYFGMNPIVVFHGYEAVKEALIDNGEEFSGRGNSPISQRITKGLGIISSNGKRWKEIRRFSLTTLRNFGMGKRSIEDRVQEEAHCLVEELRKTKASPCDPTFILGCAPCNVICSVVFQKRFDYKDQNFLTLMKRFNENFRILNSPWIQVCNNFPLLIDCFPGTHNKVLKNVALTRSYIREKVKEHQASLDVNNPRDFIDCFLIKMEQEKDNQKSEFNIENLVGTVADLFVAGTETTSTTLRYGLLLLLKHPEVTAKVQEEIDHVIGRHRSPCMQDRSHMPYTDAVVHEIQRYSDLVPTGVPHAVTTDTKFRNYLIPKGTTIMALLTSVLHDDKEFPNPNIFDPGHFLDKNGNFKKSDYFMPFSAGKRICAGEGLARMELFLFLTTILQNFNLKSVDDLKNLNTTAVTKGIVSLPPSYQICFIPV

[37] = Oral bioavailability in dog; type: ADME, organism-based, Canis lupus familiaris; conditions: in vivo
[38] = tested on: Cynomolgus monkey; experiment: Cardiotoxicity in conscious cynomolgus monkey assessed as left ventricular pressure at 3 to 30 mg/kg, po; type: toxicity, organism-based, Macaca fascicularis, Heart left ventricle; conditions: in vivo
[39] = tested on: Salmonella typhimurium; experiment: Genotoxicity in Salmonella typhimurium by Ames test; type: toxicity, organism-based; conditions: salmonella enterica subsp. enterica serovar typhimurium
[40] = Metabolic stability in cynomolgus monkey hepatocytes relative to hepatic blood flow; type: ADME, cell-based, Macaca fascicularis, Hepatocyte; conditions: read-out: Stability
[41] = Plasma protein binding in human; type: ADME, cell-free; conditions: read-out: PPB (converted)
[42] = Dissociation constant, pKa of the compound; type: physicochemical
[43] = Aqueous solubility of the compound at pH 6.8; type: physicochemical
[44] = organism: Rattus norvegicus; experiment: Clearance in rat relative to hepatic blood flow; type: ADME, organism-based, Liver; conditions: in vivo
[45] = biological target: Cytochrome P450 2C9 (Homo sapiens, UniProt P11712); experiment: Inhibition of CYP2C9 (unknown origin); type: ADME
[46] = Aqueous solubility of the compound at pH 2.2; type: physicochemical
[47] = biological target: Cytochrome P450 3A4 (Homo sapiens, UniProt P08684); experiment: Inhibition of CYP3A4 (unknown origin); type: ADME
Cytochrome P450 3A4, sequence (P08684 whole entry): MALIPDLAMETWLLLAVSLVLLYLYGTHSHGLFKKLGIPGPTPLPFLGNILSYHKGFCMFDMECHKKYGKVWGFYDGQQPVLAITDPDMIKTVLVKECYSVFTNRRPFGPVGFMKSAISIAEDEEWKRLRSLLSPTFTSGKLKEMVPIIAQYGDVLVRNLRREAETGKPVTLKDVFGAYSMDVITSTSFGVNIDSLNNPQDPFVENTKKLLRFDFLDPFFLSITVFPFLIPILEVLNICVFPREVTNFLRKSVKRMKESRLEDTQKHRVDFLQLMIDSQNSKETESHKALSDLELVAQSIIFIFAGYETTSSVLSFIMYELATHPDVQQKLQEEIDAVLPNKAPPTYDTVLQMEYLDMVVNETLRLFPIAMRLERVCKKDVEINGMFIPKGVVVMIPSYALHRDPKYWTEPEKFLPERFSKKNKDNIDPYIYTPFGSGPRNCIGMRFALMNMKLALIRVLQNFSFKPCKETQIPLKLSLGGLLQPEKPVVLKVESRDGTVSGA

[48] = tested on: Rattus norvegicus; experiment: Toxicity in diet-induced obese Wistar rat model at 6 to 10 mg/kg, po bid after 4 weeks; type: organism-based; conditions: in vivo, 672 h
[49] = Metabolic stability in human hepatocytes relative to hepatic blood flow; type: ADME, cell-based, Hepatocyte; conditions: read-out: Stability
[50] = biological target: Cytochrome P450 2C19 (Homo sapiens, UniProt P33261); experiment: Inhibition of CYP2C19 (unknown origin); type: ADME
Cytochrome P450 2C19, sequence (P33261 whole entry): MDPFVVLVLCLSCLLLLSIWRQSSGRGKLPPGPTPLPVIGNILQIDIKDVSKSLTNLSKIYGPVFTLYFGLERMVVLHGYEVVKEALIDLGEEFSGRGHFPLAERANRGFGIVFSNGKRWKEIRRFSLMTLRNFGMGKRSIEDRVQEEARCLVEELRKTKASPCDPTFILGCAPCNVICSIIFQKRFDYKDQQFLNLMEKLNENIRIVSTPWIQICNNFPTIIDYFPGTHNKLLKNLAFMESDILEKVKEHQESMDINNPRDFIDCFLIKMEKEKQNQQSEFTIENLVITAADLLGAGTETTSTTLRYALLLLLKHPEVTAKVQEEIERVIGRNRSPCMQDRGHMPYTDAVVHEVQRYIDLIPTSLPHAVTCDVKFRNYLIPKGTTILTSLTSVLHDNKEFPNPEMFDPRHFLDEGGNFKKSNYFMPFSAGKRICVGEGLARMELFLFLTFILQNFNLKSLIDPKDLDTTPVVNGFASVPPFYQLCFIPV

[51] = Intrinsic clearance in human hepatocytes assessed per 10^6 cells; type: ADME, cell-based, Hepatocyte; conditions: read-out: CLH
[52] = Aqueous solubility of the compound at pH 7.4; type: physicochemical
[53] = Aqueous solubility of the compound at pH 4.5; type: physicochemical
[54] = tested on: Rattus norvegicus; experiment: Antiobesity activity in diet-induced obese Wistar rat model assessed as reduction of body weight at 6 mg/kg, po bid after 4 weeks; type: functional; set-up: scale not given: the % may be the effect or the level left
[55] = biological target: CYP3A4 (Homo sapiens, UniProt P08684); experiment: Time dependent inhibition of CYP3A4 (unknown origin) at 25 uM after 30 mins; type: ADME
CYP3A4, sequence (P08684 whole entry): as the sequence (P08684 whole entry) above

[56] = Mean residence time in iv dosed dog; type: ADME, organism-based, Canis lupus familiaris; conditions: in vivo
[57] = biological target: Histamine H3 receptor (Homo sapiens) (UniProt Q9Y5N1); experiment: Binding affinity to histamine H3 receptor (unknown origin) at 10 uM by radioligand binding assay
Histamine H3 receptor (Homo sapiens), sequence (Q9Y5N1 whole entry): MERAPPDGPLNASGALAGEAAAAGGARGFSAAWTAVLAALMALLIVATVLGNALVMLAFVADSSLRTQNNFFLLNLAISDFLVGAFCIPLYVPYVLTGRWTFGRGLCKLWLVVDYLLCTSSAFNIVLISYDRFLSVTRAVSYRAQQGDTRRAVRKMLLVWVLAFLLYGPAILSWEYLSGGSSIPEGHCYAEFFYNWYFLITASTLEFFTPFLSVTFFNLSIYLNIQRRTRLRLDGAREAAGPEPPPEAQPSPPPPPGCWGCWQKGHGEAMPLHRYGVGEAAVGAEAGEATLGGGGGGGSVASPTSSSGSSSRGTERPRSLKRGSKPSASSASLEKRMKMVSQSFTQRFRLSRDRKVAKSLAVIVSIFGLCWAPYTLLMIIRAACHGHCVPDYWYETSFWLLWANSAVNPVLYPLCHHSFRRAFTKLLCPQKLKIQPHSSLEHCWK

[58] = biological target: hERG (KCNH2) (Homo sapiens, UniProt Q12809); experiment: Inhibition of human ERG at 10 uM by patch clamp assay
hERG (KCNH2), sequence (Q12809 whole entry): as the sequence (Q12809 whole entry) above

[59] = Plasma protein binding in rat; type: ADME, cell-free; conditions: read-out: PPB (converted)

## COc1ccc(COc2cnn(CC(=O)c3ccc(CN(C)C)cc3C)c(=O)c2)nc1
[1]
  bioavailability: 44%
[2]
  Activity: 10.2%
[3]
  CL: 40%
[4]
  IC50: 0.022 µM
[5]
  MRT: 0.5 h
[6]
  Ki: 0.014 µM
[7]
  bioavailability: 53%
[8]
  Activity: Non-toxic
[9]
  IC50: 506 µM
[10]
  IC50: 0.018 µM
[11]
  MRT: 2.9 h
[12]
  Activity: 7.7%
[13]
  Activity: Non-toxic
[14]
  MRT: 1.2 h
[15]
  MRT: 2.2 h
[16]
  Activity: 200 µM
[17]
  logD: 1.4
[18]
  Activity: 17%
[19]
  logP: 2.3
[20]
  CL: 229%
[21]
  IC50: 16 µM
[22]
  Vd: 1.3 L/kg
[23]
  Papp A→B at 10 µM: 52 ×10⁻⁶ cm/s
[24]
  Activity: Non-toxic
[25]
  fraction unbound: 0.1
[26]
  MRT: 3.4 h
[27]
  hepatic extraction ratio: 0.78
[28]
  Vd: 2.9 L/kg
[29]
  Vd: 3.3 L/kg
[30]
  fraction unbound: 0.2
[31]
  IC50: > 50 µM
[32]
  IC50: 0.023 µM
[33]
  half-life: > 0.75 h
[34]
  efflux ratio at 10 µM: 1
[35]
  Activity: Non-toxic
[36]
  IC50: > 50 µM
[37]
  bioavailability: 1.4%
[38]
  Activity: Non-toxic
[39]
  Activity: Non-toxic
[40]
  hepatic extraction ratio: 0.43
[41]
  fraction unbound: 0.07
[42]
  pKa: 2.8
[43]
  solubility: > 1000 µg/mL
[44]
  CL: 164%
[45]
  IC50: > 50 µM
[46]
  solubility: > 1000 µg/mL
[47]
  IC50: 18 µM
[48]
  Activity: Non-toxic
[49]
  hepatic extraction ratio: 0.26
[50]
  IC50: > 50 µM
[51]
  hepatocyte CLint: 3.3 µL/min/1e6 cells
[52]
  solubility: > 1000 µg/mL
[53]
  solubility: > 1000 µg/mL
[54]
  Activity: 10.1%
[55]
  inhibition at 0.5 h, 25 µM: 85%
[56]
  MRT: 0.7 h
[57]
  Activity: 78%
[58]
  inhibition at 10 µM: 17%
[59]
  fraction unbound: 0.1
